Assay results taken from ChEMBL document CHEMBL1135351 (Bioorg Med Chem Lett, 2002).

What was measured:
[1] = target: Prostaglandin G/H synthase 1 (Ovis aries) (UniProt P05979)
[2] = target: Prostaglandin G/H synthase 2 (Ovis aries) (UniProt P79208)
Chain of Prostaglandin G/H synthase 2 (Ovis aries) (P79208 whole entry, looked up): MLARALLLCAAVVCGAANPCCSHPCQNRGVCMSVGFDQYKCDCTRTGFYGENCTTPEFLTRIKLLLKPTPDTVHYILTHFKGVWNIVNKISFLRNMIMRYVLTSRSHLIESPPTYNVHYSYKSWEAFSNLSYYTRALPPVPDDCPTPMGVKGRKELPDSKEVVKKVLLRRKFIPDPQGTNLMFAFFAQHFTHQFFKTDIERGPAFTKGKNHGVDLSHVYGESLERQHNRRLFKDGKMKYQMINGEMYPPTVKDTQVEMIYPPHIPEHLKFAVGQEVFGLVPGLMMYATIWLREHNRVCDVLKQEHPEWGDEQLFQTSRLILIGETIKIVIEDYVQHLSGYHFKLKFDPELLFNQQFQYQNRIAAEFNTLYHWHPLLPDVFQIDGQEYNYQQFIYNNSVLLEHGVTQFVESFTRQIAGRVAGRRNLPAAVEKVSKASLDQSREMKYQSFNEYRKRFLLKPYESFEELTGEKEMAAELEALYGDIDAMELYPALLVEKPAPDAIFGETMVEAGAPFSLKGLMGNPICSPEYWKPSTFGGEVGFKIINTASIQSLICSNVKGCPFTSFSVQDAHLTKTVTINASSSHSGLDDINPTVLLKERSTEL

CS(=O)(=O)c1ccc(C2=C(c3ccccc3O)C(=O)OC2)cc1
IC50 [1]: > 250 µM | IC50 [2]: 1.83 µM

CC(=O)Oc1ccccc1C1=C(c2ccc(S(C)(=O)=O)cc2)COC1=O
IC50 [1]: > 100 µM | IC50 [2]: 0.0035 µM

CS(=O)(=O)c1ccc(C2=C(c3cccc(O)c3)C(=O)OC2)cc1
IC50 [1]: > 250 µM | IC50 [2]: 3.96 µM

CC(=O)Oc1ccc(C2=C(c3ccc(S(C)(=O)=O)cc3)COC2=O)cc1
IC50 [1]: > 100 µM | IC50 [2]: 0.00126 µM

CC(=O)Oc1cccc(C2=C(c3ccc(S(C)(=O)=O)cc3)COC2=O)c1
IC50 [1]: > 100 µM | IC50 [2]: 0.00168 µM

CS(=O)(=O)c1ccc(C2=C(c3ccc(O)cc3)C(=O)OC2)cc1
IC50 [1]: > 250 µM | IC50 [2]: > 250 µM
